Measured values as given in patent US10111897B2, “Compositions and methods for treating cancer with JAK2 activity” (Duke University, priority 2013, dated 2018).

How the values were obtained:
HEL92.1.7 cells = assay: GI50 assay (Cell Titer Glo viability); format: cell-based, human; conditions: for sensitivity of parental and engineered Ras effector-activated cells (viability and apoptosis): HEL92.1.7 ORF-expressing derivatives, apoptosis at 48 hours; for resensitization of Ras-expressing cells to INCB, dual ERK and Akt inhibition: INCB with both VX-11E (2 μM) and MK-2206 (10 μM)
Description: (§1) Cells were seeded into 6-well plates and infected with the desired ORF activating allele or control vector. Lentiviruses were produced and applied as previously described (42). Following two days of puromycin selection (2 μg/ml), infected cells were seeded into 96-well plates at 5,000 cells/well.
(§2) To generate […] curves, cells were treated with vehicle (DMSO) or an eight-log serial dilution of drug to yield final concentrations of […]. Each treatment condition was represented by at least three replicates. Three to four days after drug addition, cell viability was measured using Cell Titer Glo® (Promega). Relative viability was then calculated by normalizing luminescence values for each treatment condition to control treated wells.
(§3) To generate GI50 curves for drug combinations, slight modifications are made. Primary drug was applied and diluted as above while the second drug was kept at a constant concentration across all wells except the DMSO-only condition. Viability for all primary drug dilutions was then calculated relative to luminescence values from the secondary drug-only condition. Dose-response curves were fit using Graph pad/Prism 6 software.

Set2 cells = assay: GI50 assay (Cell Titer Glo viability); format: cell-based, human; conditions: for sensitivity of parental and engineered Ras effector-activated cells (relative proliferation): Set2 ORF-expressing derivatives; for sensitization of resistant and parental Set2 cells to JAK inhibitors, co-inhibition of Akt and ERK pathways: MK-2206 plus AZD-6244 (2 μM) plus respective JAK inhibitor
Description: as §1, §2, §3

[1] = JAK inhibitor combined with ABT-737; cited from earlier work
BAD = BAD phosphorylation immunoblot in HEL92.1.7 derivatives; format: cell-based, human; conditions: Ras (G12V)-transduced HEL92.1.7, 6 hours of treatment
Description: FIG. 10. BAD activity, governed by phosphorylation status at Ser 112 and 136, dictates drug sensitivity and induction of apoptosis in both the drug-sensitive and resistant state. (A-C) After 6 hours of treatment with the specified drugs, protein lysates were prepared from either myr-Akt-transduced HEL92.1.7 (A), Ras (G12V)-transduced HEL92.1.7 (B), Set2-Parental, or Set2-CYTR cells (C) and immunoblotted with the indicated antibodies. Blots are representative of three replicate experiments. […] (E, F) HEL92.1.7 derivatives stably expressing the indicated ORFs were transduced with a second ORF expressing either a second control vector or BAD2SA. (E) Twenty-four hours after selection, cells were stained with 7AAD and Annexin V to measure the induction of apoptosis. Error bars indicate SD of three replicate experiments.
Immunoblotting was performed as previously described (42) and membranes were probed with primary antibodies (1:1000 dilution) recognizing p-STAT5, STAT5, p-STAT3, STAT3, BAD, p-BAD Ser112, p-BAD Ser136, p-Akt (Thr308), Akt, p-ERK1/2 (Thr202/Tyr204), ERK1/2, Pim1, BCL-XL, BCL-2, MCL-1, Bim, Bax, Bak, NaATPase, and β-Actin. All antibodies were purchased from Cell Signaling Technology.

[2] = test system: multiple JAK2^V617F cell lines; conditions: parental JAK2^V617F cell lines (HEL92.1.7 72 h, Set2 24 h)
Description: Error bars indicate SD of three replicate experiments. (B) Digitonin-permeabilized HEL92.1.7 cells transduced with the indicated constructs were stained with the mitochondrial potential-sensitive JC1 dye and treated with a panel of BH3 peptides. Percent depolarization is shown as the area under the curve (AUC) normalized to positive control fully depolarized mitochondria (FCCP). DMSO serves as the negative control. Data shown are representative of three independent experiments for each cell line derivative. (C) Same as in (B) except in this case the indicated JAK2^V617F positive cell lines were profiled to query their apoptotic dependencies. […] Blots are representative of three replicate experiments. (E) Twenty-four hours after transduction with the indicated ORFs, HMLE and HEL92.1.7 cells were stained with 7AAD and Annexin V to measure induction of apoptosis. Error bars indicate SD of three replicate experiments.
Cells were seeded in six-well plates and treated with either the indicated amount of drug or vehicle (DMSO). Cells were incubated for the indicated time, washed twice with ice-cold PBS, and resuspended in IX Annexin V binding buffer (10 mM HEPES, 140 mM NaCl, 2.5 mM CaCl2; BD Biosciences). Surface exposure of phosphatidylserine was measured using APC-conjugated Annexin V (BD Biosciences). […] Experiments were analyzed at 20,000 counts/sample using BD FACSVantage SE. […]

[3] = patients suffering from MPNs; cited from earlier work

| SMILES | sensitivity of parental and engineered Ras effector-activated cells (viability and apoptosis) (HEL92.1.7 cells) | sensitivity of parental and engineered Ras effector-activated cells (relative proliferation) (Set2 cells) | sensitization of resistant and parental Set2 cells to JAK inhibitors, co-inhibition of Akt and ERK pathways (Set2 cells) | resensitization of Ras-expressing cells to INCB, dual ERK and Akt inhibition (HEL92.1.7 cells) | other results |
| --- | --- | --- | --- | --- | --- |
| CC1(C)CCC(CN2CCN(c3ccc(C(=O)NS(=O)(=O)c4ccc(NCC5CCOCC5)c([N+](=O)[O-])c4)c(Oc4cnc5[nH]ccc5c4)c3)CC2)=C(c2ccc(Cl)cc2)C1 [ABT-199] | insensitive | insensitive |  |  |  |
| CN(C)CC[C@H](CSc1ccccc1)Nc1ccc(S(=O)(=O)NC(=O)c2ccc(N3CCN(Cc4ccccc4-c4ccc(Cl)cc4)CC3)cc2)cc1[N+](=O)[O-] [ABT-737] | sensitive | sensitive |  |  | sensitivity of independently evolved JAK inhibitor-resistant cells compared to matched parental cells (Set2 cells; Set2-INCBR and Set2-CYTR vs Set2-Parental): equally sensitive; responses relative to JAK inhibitor monotherapy [1]: improved responses |
| Cn1cnc2c(F)c(Nc3ccc(Br)cc3Cl)c(C(=O)NOCCO)cc21 [AZD-6244] |  |  | further sensitized |  |  |
| N#CC[C@H](C1CCCC1)n1cc(-c2ncnc3[nH]ccc23)cn1 [INCB] |  |  |  |  | BAD phosphorylation at Ser 112 and 136 in Ras-expressing cells (BAD): remained phosphorylated; induction of apoptosis (Annexin-V staining) [2]: induces apoptosis; patients with transient reduction of spleen size and alleviation of some symptoms [3]: about 50 % of patients |
| NC1(c2ccc(-c3nc4ccn5c(=O)[nH]nc5c4cc3-c3ccccc3)cc2)CCC1 [MK-2206] |  |  | further sensitized | resensitized | resensitization of Akt-expressing cells to INCB (HEL92.1.7 cells; INCB plus second drug at constant concentration (MK-2206 10 μM; BEZ-235 0.2 μM)): fully resensitized; resensitization of Set2-CYTR and Set2-INCBR cells to JAK inhibitors (Set2 cells; Akt inhibition with MK-2206 plus respective JAK inhibitor, compared with parental GI50 values): resensitized |
| Cc1cnc(Nc2ccc(F)cc2Cl)nc1-c1c[nH]c(C(=O)N[C@H](CO)c2cccc(Cl)c2)c1 [VX-11E] |  |  |  | resensitized |  |
